Test results reported in patent publication US12076305B2, “Compositions comprising a conjugate of quinic acid with caffeic acid, cosmetic and therapeutic uses” (CALSCIENCE INTERNATIONAL LTD, priority 2013, dated 2024).

Assays:
[1] = test system: Human Foreskin Fibroblasts (HFFs); test: WST-1 Cell Proliferation Assay in HFFs; format: cell-based; conditions: 1/1000 and 2/1000 dilutions
Excerpt: The WST-1 Cell Proliferation Assay provides a sensitive and accurate assay for cell proliferation and cytotoxicity (cell viability). The WST assay is based on the cleavage of the tetrazolium salt WST-1 to formazan by cellular mitochondrial dehydrogenases. Expansion in the number of viable cells results in an increase in the overall activity of the mitochondrial dehydrogenases in the sample. The augmentation in enzyme activity results in an increase in the amount of formazan dye formed. The formazan dye produced by viable cells was quantified by a multi-well spectrophotometer by measuring the absorbance of the dye solution at 440 nm. The compound provided was tested in the WST assay over a range of dilutions. […] The results of the assay show the standard deviation (SD) for 1,5-DCQA (2066) and the control, and the mean values for 1,5-DCQA (2066) and the control.

p16 = test: Taqman Real Time-PCR expression of p16 in HFFs with/without H2O2 stress-induced premature senescence; format: cell-based, Human; conditions: for ddct (1.275) (P16) / Relative Expression of P16 / dCt (P16) / P16 (Ct): 1/1000 dilution; for dCt (P16): vs HPRT
Description: (§1) The following results shown in FIGS. 2 to 7 relate to the analysis of Senescence tests on compound 2066 (1,5-dicaffeoylquinic acid or 1,5-DCQA). The experiments were conducted using Human Foreskin Fibroblasts (HFFs).
(§2) In the following experiments, HFFs were challenged for a period of two hours with 150 μM hydrogen peroxide (H2O2), to stimulate premature senescence in the presence and absence of 1,5-Dicaffeoylquinic acid (1/1000 dilution), and subsequently assayed by Taqman Real Time-PCR for the expression of key senescence associated genes.
(§3) The results shown in Table 2 and FIGS. 2 to 7 were generated using the polymerase chain reaction (PCR), wherein the dCt and ddCT values are results used in statistical analysis. The abbreviation dCt relates to “delta cycle threshold” and the abbreviation ddCt relates to “delta delta cycle threshold”. In these experiments, HPRT (hypoxanthine phosphoribosyltransferase, a protein from the HPRT-1 gene) was used as a control.

p21 = test: Taqman Real Time-PCR expression of p21 in HFFs with/without H2O2 stress; format: cell-based, Human; conditions: for ddct (−3.761) (P21) / Relative Expression of P21 / dCt (P21) / P21 (Ct): 1/1000 dilution; for dCt (P21): vs HPRT
Description: as §1, §2, §3

Sirtuin 2 (SIRT2) = test: Taqman Real Time-PCR expression of Sirtuin 2 in HFFs with/without H2O2 stress; format: cell-based, Human; conditions: for ddct (−0.016) (SIRT2) / Relative Expression of SIRT2 / dCt (SIRT2) / SIRT2 (Ct): 1/1000 dilution; for dCt (SIRT2): vs HPRT
Description: as §1, §2
(§4) These genes are involved in cell cycle regulation and mitochondrial stress responses. Challenge with a near lethal level of oxidant stress typically induces an increase in SIRT2 and decrease in SIRT3 expression. […] This is indicative of each having a potential for stimulating cell proliferation in the absence of oxidant challenge.
as §3

Sirtuin 3 (SIRT3) = test: Taqman Real Time-PCR expression of Sirtuin 3 in HFFs with/without H2O2 stress; format: cell-based, Human; conditions: for ddct (−2.079) (SIRT3) / Relative Expression of SIRT3 / dCt (SIRT3) / SIRT3 (Ct): 1/1000 dilution; for dCt (SIRT3): vs HPRT
Description: as §1, §2, §4, §3

XRCC5 = test: Taqman Real Time-PCR expression of XRCC5 in HFFs with/without H2O2 stress; format: cell-based, Human; conditions: for ddct (−1.292) (XRCC5) / Relative Expression of XRCC5 / dCt (XRCC5) / XRCC5 (Ct): 1/1000 dilution; for dCt (XRCC5): vs HPRT
Description: as §1, §2
XRCC5 is a double strand break repair protein.
as §3

hPOT1 = test: Taqman Real Time-PCR expression of hPOT1 in HFFs with/without H2O2 stress; format: cell-based, Human; conditions: for ddct (−1.835) (hPOT1) / Relative Expression of hPOT1 / dct (hPOT1) / HPOT1 (Ct): 1/1000 dilution; for dct (hPOT1): vs HPRT
Description: as §1, §2
These findings are supported by an analysis of the Protection of Telomeres gene (POT 1).
as §3

p65 = test: Western blot of LNCaP cell extracts probed for p65; format: cell-based; conditions: LNCaP cells; 24 hours; 0.1, 1, 3, 10, 30, 100 μM
Description: (§5) Lanes 1 and 2 of the Western blot show the expression levels Hela control lysates comprising TNF-alpha (TNFα), in stimulated and unstimulated conditions. Lanes 3 and 4 show the results of LNCaP cell extracts, in stimulated and unstimulated conditions. In this case, the vehicle used is ethanol. Lanes 5 to 10 show the results of LNCaP cell extracts incubated for 24 hours in 0.1, 1, 3, 10, 30, 100 μM of 1,5-DCQA, respectively. Tubulin (50kD) was used as a loading control.

Pp65 (ser 536) = test: Western blot of LNCaP cell extracts probed for Pp65 (ser 536); format: cell-based; conditions: LNCaP cells; 24 hours; 0.1, 1, 3, 10, 30, 100 μM
Description: as §5

MMP-9 = test: Western blot of LNCaP cell extracts probed for MMP-9; format: cell-based; conditions: LNCaP cells; 24 hours; at 0.1 μM to 100 μM
Description: as §5

[2] = & stress (150 μM H2O2, two hours)
[3] = HFFs, & stress (150 μM H2O2, two hours)

Q: How did the “cell viability (WST-1)” value [1] turn out when `O=C(/C=C/c1ccc(O)c(O)c1)O[C@@H]1C[C@](OC(=O)/C=C/c2ccc(O)c(O)c2)(C(=O)O)C[C@@H](O)[C@H]1O` [1,5-DCQA, 1,5-dicaffeoylquinic acid] was run?
A: beneficial to cell viability

Q: And the “protection of p16 expression from oxidant challenge” value (p16; 150 μM H2O2)?
A: excellent protection from oxidant challenge

Q: What about the “ddct (1.275) (P16)” value (p16; & stress (150 μM H2O2)) of the same compound?
A: −0.519

Q: And the “Relative Expression of P16” value (p16; & stress (150 μM H2O2), media = 1.000, stress alone 3.151)?
A: 1.433

Q: What about the “dCt (P16)” value (p16; & stress (150 μM H2O2)) of the same compound?
A: 0.756

Q: What about the “P16 (Ct)” value (p16; [2]) of the same compound?
A: 28.09

Q: What about the “P16 (Ct)” value (p16; no stress) of the same compound?
A: 27.66

Q: And the “ddct (1.275) (P16)” value (p16; no stress)?
A: 0.050

Q: And the “Relative Expression of P16” value (p16; no stress, media = 1.000)?
A: 0.966

Q: What about the “dCt (P16)” value (p16; no stress) of the same compound?
A: 1.325

Q: What about the “effect on p16 expression in untreated cells” value (p16; no H2O2) of the same compound?
A: no stress effect

Q: And the “p21 expression levels following stress” value (p21; 150 μM H2O2)?
A: substantially unchanged

Q: What about the “ddct (−3.761) (P21)” value (p21; & stress (150 μM H2O2)) of the same compound?
A: −2.263

Q: What about the “Relative Expression of P21” value (p21; & stress (150 μM H2O2), media = 1.000, stress alone 4.519) of the same compound?
A: 4.801

Q: What about the “dCt (P21)” value (p21; & stress (150 μM H2O2)) of the same compound?
A: −6.024

Q: And the “P21 (Ct)” value (p21; [2])?
A: 21.31

Q: What about the “P21 (Ct)” value (p21; no stress) of the same compound?
A: 22.4

Q: What about the “ddct (−3.761) (P21)” value (p21; no stress) of the same compound?
A: −0.167

Q: And the “Relative Expression of P21” value (p21; no stress, media = 1.000)?
A: 1.122

Q: What about the “dCt (P21)” value (p21; no stress) of the same compound?
A: −3.928

Q: What about the “ddct (−0.016) (SIRT2)” value (Sirtuin 2 (SIRT2); HFFs, & stress (150 μM H2O2)) of the same compound?
A: 0.371

Q: And the “Relative Expression of SIRT2” value (Sirtuin 2 (SIRT2); HFFs, & stress (150 μM H2O2), media = 1.000, stress alone 0.762)?
A: 0.773

Q: And the “dCt (SIRT2)” value (Sirtuin 2 (SIRT2); HFFs, & stress (150 μM H2O2))?
A: 0.387

Q: And the “SIRT2 (Ct)” value (Sirtuin 2 (SIRT2); [3])?
A: 27.72

Q: And the “SIRT2 (Ct)” value (Sirtuin 2 (SIRT2); HFFs, no stress)?
A: 27.16

Q: What about the “ddct (−0.016) (SIRT2)” value (Sirtuin 2 (SIRT2); HFFs, no stress) of the same compound?
A: 0.817

Q: What about the “Relative Expression of SIRT2” value (Sirtuin 2 (SIRT2); HFFs, no stress, media = 1.000) of the same compound?
A: 0.568

Q: And the “dCt (SIRT2)” value (Sirtuin 2 (SIRT2); HFFs, no stress)?
A: 0.833

Q: What about the “change in SIRT2 expression” value (Sirtuin 2 (SIRT2); HFFs, without stress) of the same compound?
A: significant decrease

Q: What about the “down regulation of SIRT2 expression” value (Sirtuin 2 (SIRT2); normal fibroblasts) of the same compound?
A: approximately 52%

Q: What about the “ddct (−2.079) (SIRT3)” value (Sirtuin 3 (SIRT3); HFFs, & stress (150 μM H2O2)) of the same compound?
A: −0.120

Q: What about the “Relative Expression of SIRT3” value (Sirtuin 3 (SIRT3); HFFs, & stress (150 μM H2O2), media = 1.000, stress alone 0.794) of the same compound?
A: 1.086

Q: And the “dCt (SIRT3)” value (Sirtuin 3 (SIRT3); HFFs, & stress (150 μM H2O2))?
A: 1.959

Q: And the “SIRT3 (Ct)” value (Sirtuin 3 (SIRT3); [3])?
A: 29.3

Q: And the “SIRT3 (Ct)” value (Sirtuin 3 (SIRT3); HFFs, no stress)?
A: 28.56

Q: And the “ddct (−2.079) (SIRT3)” value (Sirtuin 3 (SIRT3); HFFs, no stress)?
A: 0.148

Q: What about the “Relative Expression of SIRT3” value (Sirtuin 3 (SIRT3); HFFs, no stress, media = 1.000) of the same compound?
A: 0.903

Q: And the “dCt (SIRT3)” value (Sirtuin 3 (SIRT3); HFFs, no stress)?
A: 2.227

Q: What about the “change in SIRT3 expression” value (Sirtuin 3 (SIRT3); HFFs, following oxidant challenge) of the same compound?
A: increase

Q: What about the “up regulation of SIRT3 expression” value (Sirtuin 3 (SIRT3); senescent fibroblasts) of the same compound?
A: approximately 36%

Q: And the “induction of DNA breaks (from XRCC5 expression)” value (XRCC5)?
A: does not induce DNA breaks

Q: What about the “ddct (−1.292) (XRCC5)” value (XRCC5; & stress (150 μM H2O2)) of the same compound?
A: −0.141

Q: What about the “Relative Expression of XRCC5” value (XRCC5; & stress (150 μM H2O2), media = 1.000, stress alone 2.237) of the same compound?
A: 1.103

Q: What about the “dCt (XRCC5)” value (XRCC5; & stress (150 μM H2O2)) of the same compound?
A: −1.433

Q: And the “XRCC5 (Ct)” value (XRCC5; [2])?
A: 25.9

Q: What about the “XRCC5 (Ct)” value (XRCC5; no stress) of the same compound?
A: 25.48

Q: What about the “ddct (−1.292) (XRCC5)” value (XRCC5; no stress) of the same compound?
A: 0.444

Q: What about the “Relative Expression of XRCC5” value (XRCC5; no stress, media = 1.000) of the same compound?
A: 0.735

Q: What about the “dCt (XRCC5)” value (XRCC5; no stress) of the same compound?
A: −0.848

Q: What about the “expression of XRCC5 in comparison with the control data set” value (XRCC5; with and without 150 μM H2O2) of the same compound?
A: substantially unaltered

Q: What about the “effect on hPOT1 expression against oxidant challenge” value (hPOT1; 150 μM H2O2) of the same compound?
A: protective effect

Q: And the “ddct (−1.835) (hPOT1)” value (hPOT1; & stress (150 μM H2O2))?
A: 0.405

Q: What about the “Relative Expression of hPOT1” value (hPOT1; & stress (150 μM H2O2), media = 1.000, stress alone 1.625) of the same compound?
A: 0.755

Q: And the “dct (hPOT1)” value (hPOT1; & stress (150 μM H2O2))?
A: 2.240

Q: What about the “HPOT1 (Ct)” value (hPOT1; [2]) of the same compound?
A: 29.5758

Q: And the “HPOT1 (Ct)” value (hPOT1; no stress)?
A: 29.47

Q: What about the “ddct (−1.835) (hPOT1)” value (hPOT1; no stress) of the same compound?
A: 1.306

Q: And the “Relative Expression of hPOT1” value (hPOT1; no stress, media = 1.000)?
A: 0.404

Q: And the “dct (hPOT1)” value (hPOT1; no stress)?
A: 3.141

Q: What about the “inhibition of the expression of p65” value (p65) of the same compound?
A: does not inhibit

Q: And the “inhibition of the phosphorylation of p65” value (Pp65 (ser 536))?
A: does inhibit

Q: And the “inhibition of MMP-9” value (MMP-9)?
A: clearly demonstrated
